This note sets out measurements from ChEMBL document CHEMBL3046243, “Synthesis, antifungal activity and SAR of N-substituted and N,N-disubstituted 2,4-dihydroxythiobenzamides” (J Pestic Sci, 2006).

SMILES strings stand for the structures.

The subject of the first data set is Rhizoctonia solani. As to the kind of experiment: Antifungal activity against Rhizoctonia solani assessed as inhibition of mycelial growth at 200 ppm at 21 +/- 1 degC measured after 4 days. It counts as functional. Conditions: 96 h, read-out: GI.
In the case of `COc1ccc(NC(=S)c2ccc(O)cc2O)cc1O`, the inhibition of growth at 200 ppm came out at 51%.
On the same count and under the same terms, then `O=[N+]([O-])c1cc(NC(=S)c2ccc(O)cc2O)ccc1F`, with 81%.
The same measure, in the same setting: the figure for `Oc1ccc(C(=S)Nc2ccc(N3CCOCC3)cc2)c(O)c1` is 0%; for `Cc1ccc2sc(-c3ccc(NC(=S)c4ccc(O)cc4O)cc3)nc2c1` it is 0%; for `Oc1ccc(C(=S)Nc2ccccc2-n2cccc2)c(O)c1` it is 81%.
Still for that read-out and setting: then `Oc1ccc(C(=S)N(c2ccccc2)c2nnns2)c(O)c1`, with 81%; and `Oc1ccc(C(=S)Nc2nc(=S)ss2)c(O)c1`, with 81%.
With `COC(=O)Nc1nc2ccccc2[nH]1` [CARBENDAZIM], the inhibition of growth at 200 ppm turned out to be 81%.

The test system of a further data set is Fusarium culmorum. The data set can be described thus: Antifungal activity against Fusarium culmorum assessed as inhibition of mycelial growth at 200 ppm at 21 +/- 1 degC measured after 5 days. It counts as functional. Particulars: 120 h, read-out: GI.
As for `COc1ccc(NC(=S)c2ccc(O)cc2O)cc1O`, the inhibition of growth at 200 ppm turned out to be 51%.
Still for that read-out and setting: then `O=[N+]([O-])c1cc(NC(=S)c2ccc(O)cc2O)ccc1F`, with 81%.
Same read-out and setting: the figure for `Oc1ccc(C(=S)Nc2ccc(N3CCOCC3)cc2)c(O)c1` is 21%.
Same read-out and setting: then `Cc1ccc2sc(-c3ccc(NC(=S)c4ccc(O)cc4O)cc3)nc2c1`, with 21%.
`Oc1ccc(C(=S)Nc2ccccc2-n2cccc2)c(O)c1`: the inhibition of growth at 200 ppm is 81%.
Same read-out and setting: the figure for `Oc1ccc(C(=S)N(c2ccccc2)c2nnns2)c(O)c1` is 81%.
The same measure, in the same setting: then `Oc1ccc(C(=S)Nc2nc(=S)ss2)c(O)c1`, with 81%; and `COC(=O)Nc1nc2ccccc2[nH]1` [CARBENDAZIM], with 81%.

In a further data set the test system is Phytophthora cactorum. As to the kind of experiment: Antifungal activity against Phytophthora cactorum assessed as inhibition of mycelial growth at 20 ppm at 21 +/- 1 degC measured after 5 days. It counts as functional. Conditions: 120 h, read-out: GI.
In the case of `COc1ccc(NC(=S)c2ccc(O)cc2O)cc1O`, the inhibition of growth at 20 ppm worked out at 0%.
Still for that read-out and setting: then `O=[N+]([O-])c1cc(NC(=S)c2ccc(O)cc2O)ccc1F`, with 21%.
Consider `Oc1ccc(C(=S)Nc2ccc(N3CCOCC3)cc2)c(O)c1`, for which the inhibition of growth at 20 ppm stood at 0%.
Regarding `Cc1ccc2sc(-c3ccc(NC(=S)c4ccc(O)cc4O)cc3)nc2c1`, the inhibition of growth at 20 ppm worked out at 0%.
Same read-out and setting: then `Oc1ccc(C(=S)Nc2ccccc2-n2cccc2)c(O)c1`, with 21%; and `Oc1ccc(C(=S)N(c2ccccc2)c2nnns2)c(O)c1`, with 21%.
As for `Oc1ccc(C(=S)Nc2nc(=S)ss2)c(O)c1`, the inhibition of growth at 20 ppm came to 51%.
On the same count and under the same terms, the figure for `COC(=O)Nc1nc2ccccc2[nH]1` [CARBENDAZIM] is 81%.

Another data set has as its system Botrytis cinerea. The data set can be described thus: Antifungal activity against Botryotinia fuckeliana assessed as inhibition of mycelial growth at 20 ppm at 21 +/- 1 degC measured after 3 days. It counts as functional. Particulars: 72 h, read-out: GI.
As for `COc1ccc(NC(=S)c2ccc(O)cc2O)cc1O`, the inhibition of growth at 20 ppm was 0%.
Same read-out and setting: then `O=[N+]([O-])c1cc(NC(=S)c2ccc(O)cc2O)ccc1F`, with 21%; and `Oc1ccc(C(=S)Nc2ccc(N3CCOCC3)cc2)c(O)c1`, with 0%; and `Cc1ccc2sc(-c3ccc(NC(=S)c4ccc(O)cc4O)cc3)nc2c1`, with 0%.
Take `Oc1ccc(C(=S)Nc2ccccc2-n2cccc2)c(O)c1`: the inhibition of growth at 20 ppm was determined as 21%.
Turning to `Oc1ccc(C(=S)N(c2ccccc2)c2nnns2)c(O)c1`, the inhibition of growth at 20 ppm is 51%.
Same read-out and setting: then `Oc1ccc(C(=S)Nc2nc(=S)ss2)c(O)c1`, with 51%.

In a further data set the test system is Rhizoctonia solani. The data set can be described thus: Antifungal activity against Rhizoctonia solani assessed as inhibition of mycelial growth at 20 ppm at 21 +/- 1 degC measured after 4 days. It counts as functional. Conditions: 96 h, read-out: GI.
`COc1ccc(NC(=S)c2ccc(O)cc2O)cc1O`: the inhibition of growth at 20 ppm is 0%.
Still for that read-out and setting: then `O=[N+]([O-])c1cc(NC(=S)c2ccc(O)cc2O)ccc1F`, with 51%; and `Oc1ccc(C(=S)Nc2ccc(N3CCOCC3)cc2)c(O)c1`, with 0%.
Same read-out and setting: then `Cc1ccc2sc(-c3ccc(NC(=S)c4ccc(O)cc4O)cc3)nc2c1`, with 0%.
The same measure, in the same setting: then `Oc1ccc(C(=S)Nc2ccccc2-n2cccc2)c(O)c1`, with 51%.
For `Oc1ccc(C(=S)N(c2ccccc2)c2nnns2)c(O)c1`, the inhibition of growth at 20 ppm was 21%.
The same measure, in the same setting: then `Oc1ccc(C(=S)Nc2nc(=S)ss2)c(O)c1`, with 21%; and `COC(=O)Nc1nc2ccccc2[nH]1` [CARBENDAZIM], with 81%.

The test system of a further data set is Fusarium culmorum. The data set can be described thus: Antifungal activity against Fusarium culmorum assessed as inhibition of mycelial growth at 20 ppm at 21 +/- 1 degC measured after 5 days. It counts as functional. Particulars: 120 h, read-out: GI.
Regarding `COc1ccc(NC(=S)c2ccc(O)cc2O)cc1O`, the inhibition of growth at 20 ppm was 0%.
Turning to `O=[N+]([O-])c1cc(NC(=S)c2ccc(O)cc2O)ccc1F`, the inhibition of growth at 20 ppm stood at 21%.
Still for that read-out and setting: then `Oc1ccc(C(=S)Nc2ccc(N3CCOCC3)cc2)c(O)c1`, with 0%; and `Cc1ccc2sc(-c3ccc(NC(=S)c4ccc(O)cc4O)cc3)nc2c1`, with 0%; and `Oc1ccc(C(=S)Nc2ccccc2-n2cccc2)c(O)c1`, with 51%.
Still for that read-out and setting: then `Oc1ccc(C(=S)N(c2ccccc2)c2nnns2)c(O)c1`, with 21%.
The same measure, in the same setting: then `Oc1ccc(C(=S)Nc2nc(=S)ss2)c(O)c1`, with 21%.
Take `COC(=O)Nc1nc2ccccc2[nH]1` [CARBENDAZIM]: the inhibition of growth at 20 ppm was 81%.

System in another data set: not listed separately
As to the kind of experiment: Octanol-water partition coefficient, log P of the compound. It counts as physicochemical.
Conditions: not given
On to `COc1ccc(NC(=S)c2ccc(O)cc2O)cc1O`, for which the logP (commonly the decadic logarithm of the partition coefficient of the neutral form, usually between octanol and water) was found to be 2.39.
`O=[N+]([O-])c1cc(NC(=S)c2ccc(O)cc2O)ccc1F` registered a logP of 3.43.
On the same count and under the same terms, then `Oc1ccc(C(=S)Nc2ccc(N3CCOCC3)cc2)c(O)c1`, with 2.79; and `Cc1ccc2sc(-c3ccc(NC(=S)c4ccc(O)cc4O)cc3)nc2c1`, with 3.89; and `Oc1ccc(C(=S)Nc2ccccc2-n2cccc2)c(O)c1`, with 3.29.
With `Oc1ccc(C(=S)Nc2nc(=S)ss2)c(O)c1`, the logP is 4.45.

Another data set has as its system Alternaria alternata. The data set can be described thus: Antifungal activity against Alternaria alternata assessed as inhibition of mycelial growth at 200 ppm at 21 +/- 1 degC measured after 5 days. It counts as functional. Particulars: 120 h, read-out: GI.
As to `COc1ccc(NC(=S)c2ccc(O)cc2O)cc1O`, the inhibition of growth at 200 ppm worked out at 51%.
Same read-out and setting: then `O=[N+]([O-])c1cc(NC(=S)c2ccc(O)cc2O)ccc1F`, with 81%; and `Oc1ccc(C(=S)Nc2ccc(N3CCOCC3)cc2)c(O)c1`, with 0%; and `Cc1ccc2sc(-c3ccc(NC(=S)c4ccc(O)cc4O)cc3)nc2c1`, with 21%.
As for `Oc1ccc(C(=S)Nc2ccccc2-n2cccc2)c(O)c1`, the inhibition of growth at 200 ppm worked out at 81%.
Same read-out and setting: then `Oc1ccc(C(=S)N(c2ccccc2)c2nnns2)c(O)c1`, with 81%.
For `Oc1ccc(C(=S)Nc2nc(=S)ss2)c(O)c1`, the inhibition of growth at 200 ppm came out at 81%.

System in the next data set: not listed separately
As to the kind of experiment: Lipophilicity, log K of the compound in water. It counts as physicochemical. Particulars: buffer.
As to `COc1ccc(NC(=S)c2ccc(O)cc2O)cc1O`, the logKw is reported as 2.52.
Still for that read-out and setting: the figure for `O=[N+]([O-])c1cc(NC(=S)c2ccc(O)cc2O)ccc1F` is 3.96.
Still for that read-out and setting: the figure for `Oc1ccc(C(=S)Nc2ccc(N3CCOCC3)cc2)c(O)c1` is 2.49.
Still for that read-out and setting: then `Cc1ccc2sc(-c3ccc(NC(=S)c4ccc(O)cc4O)cc3)nc2c1`, with 4.87; and `Oc1ccc(C(=S)Nc2ccccc2-n2cccc2)c(O)c1`, with 3.59; and `Oc1ccc(C(=S)N(c2ccccc2)c2nnns2)c(O)c1`, with 3.3.
`Oc1ccc(C(=S)Nc2nc(=S)ss2)c(O)c1` returned a logKw of 2.99.

The next data set concerns Botrytis cinerea. The data set can be described thus: Antifungal activity against Botryotinia fuckeliana assessed as inhibition of mycelial growth at 200 ppm at 21 +/- 1 degC measured after 3 days. It counts as functional. Conditions: 72 h, read-out: GI.
Consider `COc1ccc(NC(=S)c2ccc(O)cc2O)cc1O`, for which the inhibition of growth at 200 ppm stood at 51%.
Still for that read-out and setting: the figure for `O=[N+]([O-])c1cc(NC(=S)c2ccc(O)cc2O)ccc1F` is 81%; for `Oc1ccc(C(=S)Nc2ccc(N3CCOCC3)cc2)c(O)c1` it is 21%.
Same read-out and setting: then `Cc1ccc2sc(-c3ccc(NC(=S)c4ccc(O)cc4O)cc3)nc2c1`, with 0%.
On the same count and under the same terms, the figure for `Oc1ccc(C(=S)Nc2ccccc2-n2cccc2)c(O)c1` is 81%; for `Oc1ccc(C(=S)N(c2ccccc2)c2nnns2)c(O)c1` it is 81%.
Turning to `Oc1ccc(C(=S)Nc2nc(=S)ss2)c(O)c1`, the inhibition of growth at 200 ppm was 81%.

The next data set concerns Alternaria alternata. As to the kind of experiment: Antifungal activity against Alternaria alternata assessed as inhibition of mycelial growth at 20 ppm at 21 +/- 1 degC measured after 5 days. It counts as functional. Conditions: 120 h, read-out: GI.
In the case of `COc1ccc(NC(=S)c2ccc(O)cc2O)cc1O`, the inhibition of growth at 20 ppm is 0%.
Still for that read-out and setting: the figure for `O=[N+]([O-])c1cc(NC(=S)c2ccc(O)cc2O)ccc1F` is 21%; for `Oc1ccc(C(=S)Nc2ccc(N3CCOCC3)cc2)c(O)c1` it is 0%.
Turning to `Cc1ccc2sc(-c3ccc(NC(=S)c4ccc(O)cc4O)cc3)nc2c1`, the inhibition of growth at 20 ppm worked out at 0%.
Consider `Oc1ccc(C(=S)Nc2ccccc2-n2cccc2)c(O)c1`, for which the inhibition of growth at 20 ppm turned out to be 21%.
Take `Oc1ccc(C(=S)N(c2ccccc2)c2nnns2)c(O)c1`: the inhibition of growth at 20 ppm is 51%.
Same read-out and setting: then `Oc1ccc(C(=S)Nc2nc(=S)ss2)c(O)c1`, with 21%.

The next data set relates to Phytophthora cactorum. The data set can be described thus: Antifungal activity against Phytophthora cactorum assessed as inhibition of mycelial growth at 200 ppm at 21 +/- 1 degC measured after 5 days. It counts as functional. Conditions: 120 h, read-out: GI.
As for `COc1ccc(NC(=S)c2ccc(O)cc2O)cc1O`, the inhibition of growth at 200 ppm came to 21%.
Same read-out and setting: then `O=[N+]([O-])c1cc(NC(=S)c2ccc(O)cc2O)ccc1F`, with 81%; and `Oc1ccc(C(=S)Nc2ccc(N3CCOCC3)cc2)c(O)c1`, with 21%.
Same read-out and setting: the figure for `Cc1ccc2sc(-c3ccc(NC(=S)c4ccc(O)cc4O)cc3)nc2c1` is 0%.
Same read-out and setting: then `Oc1ccc(C(=S)Nc2ccccc2-n2cccc2)c(O)c1`, with 81%.
Regarding `Oc1ccc(C(=S)N(c2ccccc2)c2nnns2)c(O)c1`, the inhibition of growth at 200 ppm was 81%.
Turning to `Oc1ccc(C(=S)Nc2nc(=S)ss2)c(O)c1`, the inhibition of growth at 200 ppm was 81%.
Still for that read-out and setting: the figure for `COC(=O)Nc1nc2ccccc2[nH]1` [CARBENDAZIM] is 81%.
